Legend:
[1] = Stability testing: storage in a closed container under air at 80° C., odevixibat content by HPLC; assay type: physicochemical; conditions: for Odevixibat content (%): closed container under air at 80° C., HPLC
Protocol: Analyses were performed on an Agilent, Series 1100, equipped with an Agilent 1260 Infinity degasser. Column: Waters XSelcet CHS C18 (150×3 mm, 3.5 μm); Mobile phase A: 0.1% formic acid in water, mobile phase B: 0.1% formic acid in acetonitrile; Gradient 45% to 90% B; flow rate 0.425 mL/min; Acquisition time 35 minutes; Run time 42 minutes; Wave length: 283 nm; Column temperature 20° C. The Chromeleon Version 6.8 software was used.
Samples of amorphous odevixibat (purity ˜91%) and of crystal modification 1 of odevixibat (purity>99%; crystallinity 100%) were stored in a closed container under air at 80° C. The amount of odevixibat in the samples was determined by HPLC at the beginning of the experiment, and was again determined after 1, 2 and 4 weeks.

[2] = Dynamic vapour sorption (DVS) water uptake of crystal modification 1; assay type: physicochemical
Protocol: DVS measurements were performed with an SPS11-100n “Sorptions Prüfsystem” from ProUmid (formerly “Projekt Messtechnik”), August-Nagel-Str. 23, 89079 Ulm (Germany). About 20 mg of sample was used. Humidity change rates of 5% per hour were used. The sample was placed on an aluminum or platinum holder on top of a microbalance and allowed to equilibrate at 0% RH before starting the pre-defined humidity program: • (1) 5 h at 0% RH • (2) 0→95% RH (5%/h); 5 h at 95% RH • (3) 95→0% RH (5%/h); 5 h at 0% RH • (4) 0→95% RH (5%/h); 5 h at 95% RH • (5) 95→0% RH (5%/h); 5 h at 0% RH High-Performance Liquid Chromatography (HPLC) The water uptake of crystal modification 1 was measured using dynamic vapour sorption (DVS). […] After drying the sample at 0% RH and increasing the relative humidity, most of the water was taken back up to about 25% RH. This corresponds to a water content of about 3.5% (w/w). An additional 1.5% (w/w) of water was then taken up when the humidity was increased up to 95% RH. […] Crystal modification 1 therefore seems to require about 3.5% (w/w) of water, which corresponds to a sesquihydrate.

[3] = 0 weeks (beginning of the experiment)
[4] = after 4 weeks of storage at 80° C. under air

Row | SMILES | Odevixibat content (%) [1, 3] | Odevixibat content (%) ([1]; 1 week) | Odevixibat content (%) ([1]; 2 weeks) | Odevixibat content (%) ([1]; 4 weeks) | decomposition [1, 4] | change of purity [1, 4] | hygroscopicity ([2]; DVS, conclusion in words) | water content ([2]; after drying at 0% RH, water taken back up to about 25% RH) | maximum water uptake ([2]; at 95% RH, reversible) | water content ([2]; at about 30% relative humidity, based on the total crystal weight) | additional water uptake ([2]; humidity increased up to 95% RH (range 30-95% RH))
1 | CCCCC1(CCCC)CN(c2ccccc2)c2cc(SC)c(OCC(=O)N[C@@H](C(=O)N[C@@H](CC)C(=O)O)c3ccc(O)cc3)cc2S(=O)(=O)N1 [Amorphous odevixibat, 1,1-dioxo-3,3-dibutyl-5-phenyl-7-methylthio-8-(N—{(R)-α-[N—((S)-1-carboxypropyl)carbamoyl]-4-hydroxybenzyl}carbamoylmethoxy)-2,3,4,5-tetrahydro-1,2,5-benzothiadiazepine, reference compound] | 91.1% | 90.9% | 91.04% | 90.8% | 0.3% | – | – | – | – | – | –
2 | CCCCC1(CCCC)CN(c2ccccc2)c2cc(SC)c(OCC(=O)N[C@@H](C(=O)N[C@@H](CC)C(=O)O)c3ccc(O)cc3)cc2S(=O)(=O)N1 [crystal modification 1, 1,1-dioxo-3,3-dibutyl-5-phenyl-7-methylthio-8-(N—{(R)-α-[N—((S)-1-carboxypropyl)carbamoyl]-4-hydroxybenzyl}carbamoylmethoxy)-2,3,4,5-tetrahydro-1,2,5-benzothiadiazepine] | 99.13% | 99.15% | 99.18% | 99.24% | – | had not changed | slightly hygroscopic | about 3.5 % (w/w) | about 5.0 % (w/w) | about 3.5 % (w/w) | 1.5 % (w/w)

Reference: US12091394B2, “Crystal modifications of odevixibat” (Albireo AB, priority 2018, dated 2024)
